Reference: PMC3192011 (Journal of medicinal chemistry, 2009)
Several values for one entry are separate records, joined by “and”; a condition that tells them apart may be missing. Identical values can stand only once. Entries after “also recorded” stand apart in the source; their conditions may differ. Like-named read-outs stand apart in the source and are kept apart here.

What was measured:
[1] = biological target: T1, mGlu5 (Rattus norvegicus, UniProt P31424); details: cited from earlier work
[2] = system: amphetamine-induced hyperlocomotion in rats; details: cited from earlier work
[3] = biological target: T1, mGlu5; assay: mGlu5 cell-based in vitro functional assay; details: for IC50/EC50 (nM): EC50: PAM, potentiation in the presence of glutamate EC20; for IC50/EC50 (nM): EC50 / IC50/EC50 (nM): IC50: average of at least three independent determinations; for IC50/EC50 (nM): IC50: NAM
[4] = system: amphetamine-induced hyperlocomotion in rats; assay: Reversal of amphetamine-induced hyperlocomotion; format: in vivo
[5] = biological target: mGlu1 (Homo sapiens, UniProt Q13255); assay: mGlu selectivity, mGlu1; format: cell-based
[6] = biological target: mGlu2 (Homo sapiens, UniProt Q14416); assay: mGlu selectivity, mGlu2; format: cell-based
mGlu2, sequence (Q14416 19-872): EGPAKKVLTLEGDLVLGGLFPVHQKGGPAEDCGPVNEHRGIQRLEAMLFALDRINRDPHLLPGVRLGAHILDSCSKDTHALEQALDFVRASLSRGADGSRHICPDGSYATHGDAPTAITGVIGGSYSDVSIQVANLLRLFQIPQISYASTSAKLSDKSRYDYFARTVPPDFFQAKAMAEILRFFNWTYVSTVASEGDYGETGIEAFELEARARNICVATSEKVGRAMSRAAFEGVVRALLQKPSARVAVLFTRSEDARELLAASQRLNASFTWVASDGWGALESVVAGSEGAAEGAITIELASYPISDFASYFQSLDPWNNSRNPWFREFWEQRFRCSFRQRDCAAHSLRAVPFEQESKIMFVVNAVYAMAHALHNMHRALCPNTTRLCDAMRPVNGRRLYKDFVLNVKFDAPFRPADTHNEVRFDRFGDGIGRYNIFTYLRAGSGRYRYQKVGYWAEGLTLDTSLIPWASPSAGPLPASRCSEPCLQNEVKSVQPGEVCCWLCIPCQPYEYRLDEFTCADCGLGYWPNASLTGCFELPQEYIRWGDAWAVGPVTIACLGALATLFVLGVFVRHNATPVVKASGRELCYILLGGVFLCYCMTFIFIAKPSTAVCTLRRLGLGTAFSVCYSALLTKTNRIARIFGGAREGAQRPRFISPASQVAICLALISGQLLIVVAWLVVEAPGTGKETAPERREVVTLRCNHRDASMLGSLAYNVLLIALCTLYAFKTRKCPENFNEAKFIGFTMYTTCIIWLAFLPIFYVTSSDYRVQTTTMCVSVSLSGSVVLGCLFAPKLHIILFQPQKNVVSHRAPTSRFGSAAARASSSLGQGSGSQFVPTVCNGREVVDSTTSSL

[7] = biological target: mGlu3 (Homo sapiens, UniProt Q14832); assay: mGlu selectivity, mGlu3; format: cell-based
mGlu3, sequence (Q14832 23-879): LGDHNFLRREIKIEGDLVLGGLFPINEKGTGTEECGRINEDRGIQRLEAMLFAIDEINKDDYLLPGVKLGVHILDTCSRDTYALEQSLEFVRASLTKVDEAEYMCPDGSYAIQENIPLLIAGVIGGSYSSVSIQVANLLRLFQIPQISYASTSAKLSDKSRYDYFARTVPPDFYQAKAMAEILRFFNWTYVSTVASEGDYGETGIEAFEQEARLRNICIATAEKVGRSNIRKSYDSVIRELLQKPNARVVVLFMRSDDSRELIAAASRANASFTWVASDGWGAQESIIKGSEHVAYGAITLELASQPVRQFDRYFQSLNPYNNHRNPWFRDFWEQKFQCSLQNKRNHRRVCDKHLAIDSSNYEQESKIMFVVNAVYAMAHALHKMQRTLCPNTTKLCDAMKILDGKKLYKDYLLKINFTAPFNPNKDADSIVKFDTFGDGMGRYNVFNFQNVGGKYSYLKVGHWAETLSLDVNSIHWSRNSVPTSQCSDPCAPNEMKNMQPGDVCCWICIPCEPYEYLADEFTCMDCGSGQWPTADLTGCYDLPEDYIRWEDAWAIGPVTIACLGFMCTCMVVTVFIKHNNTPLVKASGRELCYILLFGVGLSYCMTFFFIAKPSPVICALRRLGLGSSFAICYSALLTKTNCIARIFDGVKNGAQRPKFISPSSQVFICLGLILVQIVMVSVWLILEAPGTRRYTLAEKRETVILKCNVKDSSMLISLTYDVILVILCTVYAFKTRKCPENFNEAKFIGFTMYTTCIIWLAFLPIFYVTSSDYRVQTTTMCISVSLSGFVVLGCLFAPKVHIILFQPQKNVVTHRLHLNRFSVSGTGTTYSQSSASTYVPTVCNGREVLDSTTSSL

[8] = biological target: mGlu4 (Homo sapiens, UniProt Q14833); assay: mGlu selectivity, mGlu4; format: cell-based
mGlu4, sequence (Q14833 33-912): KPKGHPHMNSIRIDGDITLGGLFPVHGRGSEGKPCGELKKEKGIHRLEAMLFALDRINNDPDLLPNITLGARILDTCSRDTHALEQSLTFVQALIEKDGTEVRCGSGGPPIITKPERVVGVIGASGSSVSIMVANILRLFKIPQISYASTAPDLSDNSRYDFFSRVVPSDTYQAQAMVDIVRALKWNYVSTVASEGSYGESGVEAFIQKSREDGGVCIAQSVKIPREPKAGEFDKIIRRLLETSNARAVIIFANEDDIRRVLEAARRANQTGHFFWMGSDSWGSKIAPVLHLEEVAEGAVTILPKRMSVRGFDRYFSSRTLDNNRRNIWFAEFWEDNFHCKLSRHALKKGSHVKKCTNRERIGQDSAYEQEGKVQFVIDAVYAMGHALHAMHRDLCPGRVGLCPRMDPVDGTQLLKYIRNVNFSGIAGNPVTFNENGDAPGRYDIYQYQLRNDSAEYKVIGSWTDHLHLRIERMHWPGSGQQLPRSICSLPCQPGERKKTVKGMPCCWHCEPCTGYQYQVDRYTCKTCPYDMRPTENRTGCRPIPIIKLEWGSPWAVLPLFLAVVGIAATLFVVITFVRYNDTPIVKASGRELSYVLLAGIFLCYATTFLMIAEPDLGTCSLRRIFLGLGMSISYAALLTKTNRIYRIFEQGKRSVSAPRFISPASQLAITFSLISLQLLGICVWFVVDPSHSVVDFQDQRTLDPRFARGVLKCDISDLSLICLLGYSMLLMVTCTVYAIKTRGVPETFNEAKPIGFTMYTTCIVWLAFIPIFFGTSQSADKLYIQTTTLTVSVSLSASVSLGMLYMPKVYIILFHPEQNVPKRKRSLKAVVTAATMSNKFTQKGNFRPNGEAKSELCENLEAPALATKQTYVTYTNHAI

[9] = biological target: mGlu7 (Homo sapiens, UniProt Q14831); assay: mGlu selectivity, mGlu7; format: cell-based
mGlu7, sequence (Q14831 35-915): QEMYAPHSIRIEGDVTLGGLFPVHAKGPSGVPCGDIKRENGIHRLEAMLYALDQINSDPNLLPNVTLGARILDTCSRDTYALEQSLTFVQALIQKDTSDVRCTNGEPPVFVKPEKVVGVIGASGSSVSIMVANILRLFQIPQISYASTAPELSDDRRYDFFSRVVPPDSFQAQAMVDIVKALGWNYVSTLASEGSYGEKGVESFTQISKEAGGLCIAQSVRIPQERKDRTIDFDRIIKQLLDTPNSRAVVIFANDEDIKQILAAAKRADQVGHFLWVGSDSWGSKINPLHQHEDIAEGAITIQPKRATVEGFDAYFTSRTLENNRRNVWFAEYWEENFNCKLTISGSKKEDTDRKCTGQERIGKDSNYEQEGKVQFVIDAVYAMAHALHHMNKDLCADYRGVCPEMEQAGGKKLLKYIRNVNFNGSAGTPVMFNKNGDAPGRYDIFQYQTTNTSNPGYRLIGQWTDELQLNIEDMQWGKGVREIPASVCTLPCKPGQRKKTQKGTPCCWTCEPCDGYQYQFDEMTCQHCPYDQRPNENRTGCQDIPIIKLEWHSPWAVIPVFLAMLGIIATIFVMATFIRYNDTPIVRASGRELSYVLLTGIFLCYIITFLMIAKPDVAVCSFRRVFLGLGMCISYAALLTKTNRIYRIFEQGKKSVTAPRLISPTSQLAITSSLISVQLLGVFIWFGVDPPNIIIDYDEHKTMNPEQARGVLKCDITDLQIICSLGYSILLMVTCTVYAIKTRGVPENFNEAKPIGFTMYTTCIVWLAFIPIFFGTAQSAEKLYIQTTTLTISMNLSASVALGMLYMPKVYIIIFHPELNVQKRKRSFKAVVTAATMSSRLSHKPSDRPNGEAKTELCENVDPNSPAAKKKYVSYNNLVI

[10] = biological target: mGlu8 (Homo sapiens, UniProt O00222); assay: mGlu selectivity, mGlu8; format: cell-based
[11] = system: punished responding; assay: Modified Geller-Seifter conflict model; format: in vivo, rodent; details: 1, 3, 10, 30 mg/kg

T1 sequence (P31424 21-1203): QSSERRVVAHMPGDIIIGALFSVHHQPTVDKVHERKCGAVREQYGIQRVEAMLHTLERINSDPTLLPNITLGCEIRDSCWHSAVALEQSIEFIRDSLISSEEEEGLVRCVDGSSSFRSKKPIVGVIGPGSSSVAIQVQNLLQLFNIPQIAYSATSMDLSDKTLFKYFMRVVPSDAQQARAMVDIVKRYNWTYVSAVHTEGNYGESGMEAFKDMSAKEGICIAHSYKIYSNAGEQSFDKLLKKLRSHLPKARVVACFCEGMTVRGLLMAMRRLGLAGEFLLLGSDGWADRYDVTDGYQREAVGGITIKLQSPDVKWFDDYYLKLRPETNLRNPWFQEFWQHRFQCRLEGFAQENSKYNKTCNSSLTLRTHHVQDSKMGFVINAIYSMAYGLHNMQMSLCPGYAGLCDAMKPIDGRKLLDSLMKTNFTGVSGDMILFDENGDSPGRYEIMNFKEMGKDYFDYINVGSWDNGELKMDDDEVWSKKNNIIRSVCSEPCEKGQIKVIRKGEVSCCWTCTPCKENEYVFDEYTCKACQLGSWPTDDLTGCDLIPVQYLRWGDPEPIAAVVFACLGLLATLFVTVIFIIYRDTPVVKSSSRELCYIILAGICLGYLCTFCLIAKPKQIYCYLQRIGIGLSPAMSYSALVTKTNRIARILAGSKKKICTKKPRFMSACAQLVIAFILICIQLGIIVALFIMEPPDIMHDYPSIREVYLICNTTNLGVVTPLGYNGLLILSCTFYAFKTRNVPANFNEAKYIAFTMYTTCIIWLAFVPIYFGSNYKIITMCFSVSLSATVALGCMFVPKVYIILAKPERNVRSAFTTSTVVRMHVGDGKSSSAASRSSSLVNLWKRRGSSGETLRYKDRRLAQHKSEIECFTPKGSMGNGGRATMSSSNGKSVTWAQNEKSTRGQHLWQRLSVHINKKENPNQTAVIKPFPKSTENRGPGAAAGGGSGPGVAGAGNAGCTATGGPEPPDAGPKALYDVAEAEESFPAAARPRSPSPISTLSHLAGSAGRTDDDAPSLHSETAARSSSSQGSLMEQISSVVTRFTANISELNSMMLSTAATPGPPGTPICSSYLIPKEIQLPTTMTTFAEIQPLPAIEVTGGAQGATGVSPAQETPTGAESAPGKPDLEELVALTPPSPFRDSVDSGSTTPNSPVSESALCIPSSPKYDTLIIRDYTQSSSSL

O=C(c1ccc(F)cc1)N1CCC[C@H](c2nc(-c3ccc(F)cc3)no2)C1 [compound 7, reference compound]
mode of mGlu5 pharmacology in words [1]: ago-potentiators
efficacy in amphetamine-induced hyperlocomotion model [2]: robust efficacy

Cc1ccc(C#Cc2cncnc2)cc1 [compound 10]
IC50/EC50 (nM): EC50 ([1]; PAM, table value of earlier compound): 3,300±290 nM
Fold Shift ([1]; mGlu5 PAM): 4.2 fold
efficacy, % of glutamate max ([1]; mGlu5 PAM): 99%

CNc1ncc(C#Cc2ccccc2)cn1 [16b]
mGlu5 activity in words [3]: pure mGlu5 PAM
IC50/EC50 (nM): EC50 [3]: 14.3 nM
activity in the absence of glutamate (agonism) ([3]; no glutamate): does not activate mGlu5
reversal of amphetamine-induced hyperlocomotion ([4]; i.p. 3, 10 or 30 mg/kg thirty minutes prior to s.c. 1 mg/kg amphetamine, vehicle 10% Tween 80): significant reversal noted at the 30 mg/kg dose; also recorded: dose-dependent manner
effect of compound/vehicle alone on locomotion (sedation) ([4]; without amphetamine): no effect

CNc1ncc(C#Cc2ccc(C)cc2)cn1 [16f]
mGlu5 activity in words [3]: weak mGlu5 PAM

CC(C)(C)c1ncc(C#Cc2ccccc2)cn1 [16e]
IC50/EC50 (nM): EC50 [3]: 247 nM

N#Cc1cccc(C(=O)Nc2cc(-c3ccccc3)nn2-c2ccccc2)c1 [compound 6, reference compound]
mode of mGlu5 pharmacology in words [1]: ago-potentiators
efficacy in amphetamine-induced hyperlocomotion model [2]: robust efficacy

CSc1ncc(C#Cc2ccccc2)cn1 [16d]
IC50/EC50 (nM): EC50 [3]: 120 nM

Cc1cccc(C#Cc2ncccn2)c1 [17b]
IC50/EC50 (nM): IC50 [3]: 10.8 ± 2.7 nM
selectivity vs. mGlu1 [5]: > 10 µM
selectivity vs. mGlu2 [6]: > 10 µM
selectivity vs. mGlu3 [7]: > 10 µM
selectivity vs. mGlu4 [8]: > 10 µM
selectivity vs. mGlu7 [9]: > 10 µM
selectivity vs. mGlu8 [10]: > 10 µM
unpunished responding [11]: no significant effect on unpunished responding; also recorded: did not change significantly at any of the doses tested
punished responding vs vehicle ([11]; p < 0.05 Newman-Keul): both the 10 and 30 mg/kg doses in the punished component of the schedule differed significantly from vehicle; also recorded: significantly greater number of responses than animals tested on vehicle

CNc1ncc(C#Cc2cccc(C)c2)cn1 [16c]
IC50/EC50 (nM): EC50 [3]: 21.1 nM and 21 nM

Cc1ccc(C#Cc2ncccn2)cc1 [17c]
mGlu5 activity in words [3]: inactive

CCOc1ncc(C#Cc2cccc(C)c2)cn1 [16a]
IC50/EC50 (nM): IC50 [3]: 21 nM
